Assay [1] deals with Maver-1 cells (mantle cell lymphoma). In words: Cytotoxicity, TMRE flow cytometry viability, Maver-1 cells (Example II.1). Type of assay: cell-based. To be noted: Homo sapiens, Maver1, 24 hours, TMRE positive cells normalized to control, ratio to PF670462, <1 = higher cytotoxicity than PF670462, read-out: Viability of cells, Compound of formula I (100 μM), relative to PF670462 (100 μM), Maver-1 cells (mantle cell lymphoma). The protocol:
(§1) The leukemia and lymphoma-derived cell lines [MEC-1 cell line (derived from chronic lymphocytic leukemia—CLL), Nalm-16 (acute lymphocytic leukemia—ALL), K562 (chronic myeloid leukemia—CML), HL-60 (acute myeloid leukemia—AML), Maver-1 and Mino (mantle cell lymphoma—MCL), BL-41 (Burkitt lymphoma—BL), WSU-NHL (follicular lymphoma—FL), SUDHL (diffuse large B-cell lymphoma—DLBCL)], primary CLL cells and nonmalignant control primary cells were cultured in suspension in flasks under the following conditions: RPMI 1640 medium (Hyclone) supplemented with 10% fetal bovine serum (FBS, Gibco) and 1% penicillin/streptomycin (Life Technologies), 37° C., 5% CO2 and 95% relative humidity, with optimal culture cell density 5×10^6 cells/mL in case of primary cells and 0.5-1×10^6 cells/mL in case of cell lines. The adherent cell lines [A375 (derived from malignant melanoma), MDA-MB-231 and MCF-7 (breast cancer), MIA-PA-CA and PANC1 (pancreatic cancer), PC3 (prostate cancer), OVCAR4 (ovarian cancer) and HEPG2 (hepatocellular carcinoma)] were cultured on plates under the same conditions using RPMI1640 or DMEM medium (Gibco) according to instructions provided by the distributor (DSMZ/ATCC).
(§2) Cytotoxicity of compounds of formula I was tested in two models representative for leukemia (primary CLL cells) and lymphoma (Maver-1 cells). The primary CLL cells and Maver-1 cells (MCL-derived) were incubated with inhibitors at 100 μM concentration or corresponding amount of solvent (DMSO, Sigma Aldrich) as 0.1×10^6 cells/200 μl per well in a 96-well plate. Experiments were performed in technical duplicates. Viability of cells was assessed after 6 hours in case of primary CLL cells and after 24 hours in case of Maver-1 cells.
(§3) Apoptosis-induced reduction of mitochondrial potential is detected as lower TMRE fluorescence. […] Relative values are presented, showing ratio to the effect of PF670462 (as the closest prior art). Relative value <1 indicates a higher cytotoxicity than PF670462.

A further assay deals with primary CLL cells. Description: Cytotoxicity, TMRE flow cytometry viability, primary CLL cells (Example II.1). Type of assay: cell-based. To be noted: Homo sapiens, CLL cell, 6 hours, TMRE positive cells normalized to control, ratio to PF670462, <1 = higher cytotoxicity than PF670462, read-out: Viability of cells, Compound of formula I (100 μM), relative to PF670462 (100 μM), CLL primary cells. The protocol:
as §1, §2, §3

With `Fc1ccc(-c2ncn(CCc3ccccc3)c2-c2ccnc3[nH]ccc23)cc1` [Preparative Example 87, 4-(4-(4-fluorophenyl)-1-phenethyl-1H-imidazol-5-yl)-1H-pyrrolo[2,3-b]pyridine], the values for the viability at 100 µM (in assay [1]; with primary CLL cells) were 3% and 10%, respectively.
On the same counts, the results for `Fc1ccc(-c2ncn(CC3CCCCC3)c2-c2ccnc3[nH]ccc23)cc1` [Preparative Example 88, 4-(1-(cyclohexylmethyl)-4-(4-fluorophenyl)-1H-imidazol-5-yl)-1H-pyrrolo[2,3-b]pyridine] are 5% and 15%.
Regarding `CN(C)[C@H]1C[C@@H](Cn2cnc(-c3ccc(F)cc3)c2-c2ccnc3[nH]ccc23)C1` [Preparative Example 89], the viability at 100 µM in assay [1] was 70%; in the assay with primary CLL cells, 59%.
`CN(C)[C@H]1CC[C@@H](n2cnc(-c3ccc(F)cc3)c2-c2ccnc3[nH]ccc23)CC1` [Preparative Example 90]: the viability at 100 µM in assay [1] turned out to be 52%; in the assay with primary CLL cells, 23%.
On to `CN(C)CCS(=O)(=O)N[C@H]1CC[C@@H](n2cnc(-c3ccc(F)cc3)c2-c2ccnc3[nH]ccc23)CC1` [Preparative Example 98, 2-(dimethylamino)-N-((1R,4s)-4-(4-(4-fluorophenyl)-5-(1H-pyrrolo[2,3-b]pyridin-4-yl)-1H-imidazol-1-yl)cyclohexyl)ethane-1-sulfonamide], for which the viability at 100 µM in assay [1] was 3%; in the assay with primary CLL cells it was 16%.
`CN(C)CCCS(=O)(=O)N[C@H]1CC[C@@H](n2cnc(-c3ccc(F)cc3)c2-c2ccnc3[nH]ccc23)CC1` [Preparative Example 100, 3-(dimethylamino)-N-((1R,4s)-4-(4-(4-fluorophenyl)-5-(1H-pyrrolo[2,3-b]pyridin-4-yl)-1H-imidazol-1-yl)cyclohexyl)propane-1-sulfonamide]: the viability at 100 µM in assay [1] was 0%; in the assay with primary CLL cells, 1%.
On the same counts, the results for `Cc1nc(Cn2cnc(-c3ccc(F)cc3)c2-c2ccnc3[nH]ccc23)cs1` [Preparative Example 108, 4-((4-(4-fluorophenyl)-5-(1H-pyrrolo[2,3-b]pyridin-4-yl)-1H-imidazol-1-yl)methyl)-2-methylthiazole] are 82% and 74%.
On the same counts, the results for `Fc1ccc(-c2ncn(Cc3cc[nH]n3)c2-c2ccnc3[nH]ccc23)cc1` [Preparative Example 109, 4-(1-((1H-pyrazol-3-yl)methyl)-4-(4-fluorophenyl)-1H-imidazol-5-yl)-1H-pyrrolo[2,3-b]pyridine] are 31% and 87%.
On to `Fc1ccc(-c2ncn(CC3CNCCO3)c2-c2ccnc3[nH]ccc23)cc1` (stereo not drawn) [Preparative Example 114, 2-((4-(4-fluorophenyl)-5-(1H-pyrrolo[2,3-b]pyridin-4-yl)-1H-imidazol-1-yl)methyl)morpholine], for which the viability at 100 µM was 27% in assay [1] and 78% in the assay with primary CLL cells.
With `CN(C)[C@H]1C[C@H](n2cnc(-c3ccc(F)cc3)c2-c2ccnc3[nH]ccc23)C1` [Preparative Example 124, (1S,3r)-3-(4-(4-fluorophenyl)-5-(1H-pyrrolo[2,3-b]pyridin-4-yl)-1H-imidazol-1-yl)-N,N-dimethylcyclobutan-1-amine], the viability at 100 µM turned out to be 53% in assay [1] and 55% in the assay with primary CLL cells.
For `CN(C)[C@H]1CC[C@H](n2cnc(-c3ccc(F)cc3)c2-c2ccnc3[nH]ccc23)CC1` [Preparative Example 125, (1S,4r)-4-(4-(4-fluorophenyl)-5-(1H-pyrrolo[2,3-b]pyridin-4-yl)-1H-imidazol-1-yl)-N,N-dimethylcyclohexan-1-amine], the viability at 100 µM in assay [1] came out at 26%; in the assay with primary CLL cells, 28%.
Take `CN1CCC(Cn2cnc(-c3ccc(F)cc3)c2-c2ccnc3[nH]ccc23)C1` (stereo not drawn) [Preparative Example 129, 4-(4-(4-fluorophenyl)-1-((1-methylpyrrolidin-3-yl)methyl)-1H-imidazol-5-yl)-1H-pyrrolo[2,3-b]pyridine]: the viability at 100 µM was 86% in assay [1] and 78% in the assay on primary CLL cells.
On the same counts, the results for `Fc1ccc(-c2ncn(C3CCCCC3)c2-c2ccnc3[nH]cc(Br)c23)cc1` [Preparative Example 134, 3-bromo-4-(1-cyclohexyl-4-(4-fluorophenyl)-1H-imidazol-5-yl)-1H-pyrrolo[2,3-b]pyridine] are 1% and 22%.
As for `Fc1ccc(-c2nc(Br)n(C3CCCCC3)c2-c2ccnc3[nH]ccc23)cc1` [Preparative Example 135, 4-(2-bromo-1-cyclohexyl-4-(4-fluorophenyl)-1H-imidazol-5-yl)-1H-pyrrolo[2,3-b]pyridine], the viability at 100 µM came out at 0% in assay [1] and 9% with primary CLL cells.
Turning to `CSc1nc(-c2ccc(F)cc2)c(-c2ccnc3[nH]ccc23)n1C1CCCCC1` [Preparative Example 136, 4-(1-cyclohexyl-4-(4-fluorophenyl)-2-(methylthio)-1H-imidazol-5-yl)-1H-pyrrolo[2,3-b]pyridine], the viability at 100 µM in assay [1] was determined as 0%; with primary CLL cells, 47%.
Turning to `CN1CCC(Cn2cnc(-c3ccc(F)c(Cl)c3)c2-c2ccnc3[nH]ccc23)CC1` [Preparative Example 141, 4-(4-(3-chloro-4-fluorophenyl)-1-((1-methylpiperidin-4-yl)methyl)-1H-imidazol-5-yl)-1H-pyrrolo[2,3-b]pyridine], the viability at 100 µM came out at 0% in assay [1] and 43% with primary CLL cells.
`CN(C)[C@H]1CC[C@H](n2cnc(-c3ccc(F)c(Cl)c3)c2-c2ccnc3[nH]ccc23)CC1` [Preparative Example 142, (1R,4r)-4-(4-(3-chloro-4-fluorophenyl)-5-(1H-pyrrolo[2,3-b]pyridin-4-yl)-1H-imidazol-1-yl)-N,N-dimethylcyclohexan-1-amine]: the viability at 100 µM in assay [1] came to 0%; with primary CLL cells, 5%.
On to `Fc1ccc(-c2ncn(C3CCCCC3)c2-c2ccnc3[nH]cc(Cl)c23)cc1` [Preparative Example 144, 3-chloro-4-(1-cyclohexyl-4-(4-fluorophenyl)-1H-imidazol-5-yl)-1H-pyrrolo[2,3-b]pyridine], for which the viability at 100 µM was found to be 1% in assay [1] and 36% in the assay with primary CLL cells.
Turning to `CC(c1ccccc1)n1cnc(-c2ccc(F)cc2)c1-c1ccnc2[nH]ccc12` (stereo not drawn) [Preparative Example 146, 4-(4-(4-fluorophenyl)-1-(1-phenylethyl)-1H-imidazol-5-yl)-1H-pyrrolo[2,3-b]pyridine], the viability at 100 µM in assay [1] was determined as 0%; in the assay with primary CLL cells it was 16%.
Regarding `Fc1ccc(-c2ncn(Cc3c[nH]nn3)c2-c2ccnc3[nH]ccc23)cc1` [Preparative Example 153, 4-(1-((1H-1,2,3-triazol-4-yl)methyl)-4-(4-fluorophenyl)-1H-imidazol-5-yl)-1H-pyrrolo[2,3-b]pyridine], the viability at 100 µM in assay [1] was 87%; with primary CLL cells it was 117%.
On the same counts, the results for `Fc1ccc(-c2nc(Cl)n(C3CCCCC3)c2-c2ccnc3[nH]ccc23)cc1` [Preparative Example 155, 4-(2-chloro-1-cyclohexyl-4-(4-fluorophenyl)-1H-imidazol-5-yl)-1H-pyrrolo[2,3-b]pyridine] are 0% and 1%.
On to `CCOC(=O)c1nc(-c2ccc(F)cc2)c(-c2ccnc3[nH]ccc23)n1C1CCCCC1` [Preparative Example 163, ethyl 1-cyclohexyl-4-(4-fluorophenyl)-5-(1H-pyrrolo[2,3-b]pyridin-4-yl)-1H-imidazole-2-carboxylate], for which the viability at 100 µM is 10% in assay [1] and 57% in the assay on primary CLL cells.
As to `NC(=O)c1nc(-c2ccc(F)cc2)c(-c2ccnc3[nH]ccc23)n1C1CCCCC1` [Preparative Example 165, 1-cyclohexyl-4-(4-fluorophenyl)-5-(1H-pyrrolo[2,3-b]pyridin-4-yl)-1H-imidazole-2-carboxamide], the viability at 100 µM (in assay [1]; in the assay with primary CLL cells) was 0% throughout.
Consider `OCc1nc(-c2ccc(F)cc2)c(-c2ccnc3[nH]ccc23)n1C1CCCCC1` [Preparative Example 166, (1-cyclohexyl-4-(4-fluorophenyl)-5-(1H-pyrrolo[2,3-b]pyridin-4-yl)-1H-imidazol-2-yl)methanol], for which the viability at 100 µM in assay [1] is 4%; with primary CLL cells, 7%.

The values are drawn from patent US11498920B2, “4-(1H-imidazol-5-yl)-1H-pyrrolo[2, 3-b] pyridines for use in the treatment of leukaemias, lymphomas and solid tumors” (MASARYKOVA UNIVERZITA, priority 2018, dated 2022).
